What all share (format): cell-based
Experiment [1] has as its system PRMT5 (SDMA) in HAP1 MTAP-intact cell line. The experiment can be described thus: SDMA in-cell western assay, HAP1 MTAP-intact cell line. To be noted: Homo sapiens, HAP1 MTAP-intact cell line (endogenous MTAP), read-out: Hap 1 MTAP intact IC50. From the text: (§1) HAP1 MTAP-intact is a cell line in which endogenous levels of MTAP are expressed, and HAP1 MTAP-deleted is an MTAP-null cell line.

Experiment [2] has as its system PRMT5 (SDMA) in HAP1 MTAP-deleted cell line. The experiment can be described thus: SDMA in-cell western assay, HAP1 MTAP-deleted cell line. To be noted: for IC50 / IC90: Homo sapiens, SDMA in-cell western, HAP1 MTAP-deleted (MTAP-null) cell line; for Hap1 MTAP intact/deleted ratio: ratio of SDMA in-cell western IC50 in HAP1 MTAP-intact to IC50 in HAP1 MTAP-deleted cell line.
From the text: as §1

Experiment [3] has as its system HAP1 MTAP-deleted cell line. The experiment can be described thus: viability assay for the MTAP-deleted cell line. To be noted: Homo sapiens.

Consider `CC(C)CN1C[C@H](c2ccccc2)N(C(=O)C(=O)Nc2cnc(N)c(C3CC3)c2)C[C@H]1C` [Compound 122, N-(6-amino-5-cyclopropylpyridin-3-yl)-2-((2S,5R)-4-isobutyl-5-methyl-2-phenylpiperazin-1-yl)-2-oxoacetamide], for which, in experiment [1], the IC50 was greater than 0.05 µM. Moreover, in experiment [2], the IC50 was 0.005 to 0.05 µM, the IC90 was greater than 0.125 µM and the “Hap1 MTAP intact/deleted ratio” value is recorded as “B (an IC50 ratio greater than or equal to 15 fold but lower than 30 fold)”. This compound also displayed an IC50 in experiment [3] of less than 0.1 µM.

In the case of `Cc1cc(NC(=O)C(=O)N2C[C@@H](C)N(C(=O)C(C)C)C[C@@H]2c2cccc(N3CCN(C)CC3)c2)cnc1N` [Compound 117, N-(6-amino-5-methylpyridin-3-yl)-2-((2S,5R)-4-isobutyryl-5-methyl-2-(3-(4-methylpiperazin-1-yl)phenyl)piperazin-1-yl)-2-oxoacetamide], the IC50 is 0.005 to 0.05 µM in experiment [1], 0.005 to 0.05 µM in experiment [2] and less than 0.1 µM in experiment [3]. Moreover, the IC90 in experiment [2] is less than 0.075 µM. The “Hap1 MTAP intact/deleted ratio” value in experiment [2] is on record as “C (an IC50 ratio of less than 15 fold)”.

With `Cc1cc(NC(=O)C(=O)N2C[C@@H](C)N(C(=O)C(C)(C)C)C[C@@H]2c2ccccc2)cnc1N` [Compound 99, N-(6-amino-5-methylpyridin-3-yl)-2-((2S,5R)-5-methyl-2-phenyl-4-pivaloylpiperazin-1-yl)-2-oxoacetamide], the half-maximal inhibitory concentration (IC50) in experiment [1] is 0.005 to 0.05 µM. In experiment [2], the IC50 is less than 0.005 µM, the IC90 is less than 0.075 µM and the “Hap1 MTAP intact/deleted ratio” value is “C (an IC50 ratio of less than 15 fold)”. In experiment [3], this compound yielded an IC50 of less than 0.1 µM.

Consider `CCc1cc(NC(=O)C(=O)N2C[C@@H](C)N(C(=O)C(C)(C)C)C[C@@H]2c2ccc(F)cc2)cnc1N` [Compound 33, N-(6-amino-5-ethylpyridin-3-yl)-2-((2S,5R)-2-(4-fluorophenyl)-5-methyl-4-pivaloylpiperazin-1-yl)-2-oxoacetamide], for which the IC50 in experiment [1] is 0.005 to 0.05 µM; in experiment [2], less than 0.005 µM; in experiment [3], less than 0.1 µM. This compound also yielded an IC90 in experiment [2] of less than 0.075 µM. The “Hap1 MTAP intact/deleted ratio” value in experiment [2] was “C (an IC50 ratio of less than 15 fold)”.

In the case of `CCc1cc(NC(=O)C(=O)N2C[C@@H](C)N(CC(C)C)C[C@@H]2c2ccccc2)cnc1N` [Compound 32, N-(6-amino-5-ethylpyridin-3-yl)-2-((2S,5R)-4-isobutyl-5-methyl-2-phenylpiperazin-1-yl)-2-oxoacetamide], the IC50 in experiment [1] is greater than 0.05 µM. In addition, in experiment [2], the IC50 was 0.005 to 0.05 µM, the IC90 was greater than 0.125 µM and the “Hap1 MTAP intact/deleted ratio” value is “A (an IC50 ratio greater than or equal to 30 fold)”. This compound showed an IC50 in experiment [3] of less than 0.1 µM.

As for `CC(C)C(=O)N1C[C@H](c2cccc(Cl)c2)N(C(=O)C(=O)Nc2cnc(N)c(C3CC3)c2)C[C@H]1C` [Compound 133, N-(6-amino-5-cyclopropylpyridin-3-yl)-2-((2S,5R)-2-(3-chlorophenyl)-4-isobutyryl-5-methylpiperazin-1-yl)-2-oxoacetamide], the values for the IC50 in experiment [1], in experiment [2] and in experiment [3] were greater than 0.05 µM, 0.005 to 0.05 µM and less than 0.1 µM, respectively. The same compound yielded an IC90 in experiment [2] of less than 0.075 µM. Further, in experiment [2], the “Hap1 MTAP intact/deleted ratio” value is given as “B (an IC50 ratio greater than or equal to 15 fold but lower than 30 fold)”.

As for `C[C@@H]1CN(C(=O)C(=O)Nc2cnc(N)c3cn[nH]c23)[C@@H](c2ccccc2)CN1C(=O)C(C)(C)CN(C)C` [Compound 54, N-(4-amino-1H-pyrazolo[4,3-c]pyridin-7-yl)-2-oxo-2-[(2S,5R)-4-[3-(dimethylamino)-2,2-dimethyl-propanoyl]-5-methyl-2-phenyl-piperazin-1-yl]acetamide], in experiment [1], the half-inhibitory concentration (IC50) fell in the range of 0.005 to 0.05 µM. For the same compound, in experiment [2], the IC50 fell in the range of 0.005 to 0.05 µM, the IC90 was less than 0.075 µM and the “Hap1 MTAP intact/deleted ratio” value is reported as “C (an IC50 ratio of less than 15 fold)”. In experiment [3], this compound displayed an IC50 of less than 0.1 µM.

For `Cc1cc(NC(=O)C(=O)N2C[C@@H](C)N(C(=O)C3(C(F)(F)F)CC3)C[C@@H]2c2ccccc2)cnc1N` [Compound 78, N-(6-amino-5-methylpyridin-3-yl)-2-((2S,5R)-5-methyl-2-phenyl-4-(1-(trifluoromethyl)cyclopropanecarbonyl)piperazin-1-yl)-2-oxoacetamide], the IC50 was greater than 0.05 µM in experiment [1], 0.005 to 0.05 µM in experiment [2] and less than 0.1 µM in experiment [3]. The compound also yielded a 90% effect concentration (IC90) in experiment [2] greater than 0.125 µM. Also, the “Hap1 MTAP intact/deleted ratio” value in experiment [2] was “B (an IC50 ratio greater than or equal to 15 fold but lower than 30 fold)”.

On to `COc1ncc(NC(=O)C(=O)N2C[C@H](C)N(C(=O)C(C)C)C[C@H]2c2ccc(F)cc2)cc1C(N)=O` [Compound 88, 5-[[2-[(2R,5S)-2-(4-fluorophenyl)-5-methyl-4-(2-methylpropanoyl)piperazin-1-yl]-2-oxo-acetyl]amino]-2-methoxy-pyridine-3-carboxamide], for which, in experiment [1], the IC50 is greater than 0.05 µM. In addition, in experiment [2], the IC50 was greater than 0.05 µM, the IC90 was greater than 0.125 µM and the “Hap1 MTAP intact/deleted ratio” value is “C (an IC50 ratio of less than 15 fold)”. Moreover, the IC50 in experiment [3] was greater than 1 µM.

Turning to `COc1ncc(NC(=O)C(=O)N2C[C@@H](C)N(C(=O)C(C)C)C[C@@H]2c2ccc(F)c(Cl)c2)cc1C(N)=O` [Compound 12, 5-(2-((2S,5R)-2-(3-chloro-4-fluorophenyl)-4-isobutyryl-5-methylpiperazin-1-yl)-2-oxoacetamido)-2-methoxynicotinamide], the IC50 in experiment [1] is greater than 0.05 µM; in experiment [2] it was 0.005 to 0.05 µM; in experiment [3], 0.1 to 1 µM. Also, the IC90 in experiment [2] was greater than 0.125 µM. Further, the “Hap1 MTAP intact/deleted ratio” value in experiment [2] was “A (an IC50 ratio greater than or equal to 30 fold)”.

In the case of `CCc1cc(NC(=O)C(=O)N2C[C@@H](C)N(C(=O)C(C)C)C[C@@H]2c2cccc(OCCN(C)C)c2)cnc1N` [Compound 67, N-(6-amino-5-ethylpyridin-3-yl)-2-((2S,5R)-2-(3-(2-(dimethylamino)ethoxy)phenyl)-4-isobutyryl-5-methylpiperazin-1-yl)-2-oxoacetamide], the IC50 in experiment [1] is 0.005 to 0.05 µM. In experiment [2], the IC50 was less than 0.005 µM, the IC90 is less than 0.075 µM and the “Hap1 MTAP intact/deleted ratio” value is listed as “C (an IC50 ratio of less than 15 fold)”. Besides, the IC50 in experiment [3] was less than 0.1 µM.

Regarding `Cc1cc(NC(=O)C(=O)N2C[C@@H](C)N(C(=O)C3(C)CC3)C[C@@H]2c2ccccc2)cnc1N` [Compound 143, N-(6-amino-5-methylpyridin-3-yl)-2-((2S,5R)-5-methyl-4-(1-methylcyclopropanecarbonyl)-2-phenylpiperazin-1-yl)-2-oxoacetamide], the concentration for half-maximal inhibition (IC50) in experiment [1] was greater than 0.05 µM. Besides, in experiment [2], the IC50 was in the range of 0.005 to 0.05 µM, the IC90 is greater than 0.125 µM and the “Hap1 MTAP intact/deleted ratio” value is reported as “C (an IC50 ratio of less than 15 fold)”. In experiment [3], the IC50 was less than 0.1 µM.

As for `C[C@@H]1CN(C(=O)C(=O)Nc2cncc3cn[nH]c23)[C@@H](c2ccc(F)cc2)CN1C(=O)OC(C)(C)C` [Compound 129, (2R,5S)-tert-butyl 4-(2-((1H-pyrazolo[4,3-c]pyridin-7-yl)amino)-2-oxoacetyl)-5-(4-fluorophenyl)-2-methylpiperazine-1-carboxylate], in experiment [1], the IC50 is greater than 0.05 µM. In experiment [2], the IC50 lay in the range of 0.005 to 0.05 µM, the IC90 was greater than 0.125 µM and the “Hap1 MTAP intact/deleted ratio” value is on record as “A (an IC50 ratio greater than or equal to 30 fold)”. This compound had an IC50 in experiment [3] of 0.1 to 1 µM.

These data come from patent publication US20250282749A1 (Tango Therapeutics, Inc., priority 2022, published 2025).
